In the CheMixHub ionic liquid set:
± gives the uncertainty stated by the source.

Assay: xn = mol fraction of the nth substance listed
Settings: 308.15 K, 101 kPa

CCCCCCCCCCCCCCCC[n+]1ccccc1.[Cl-] + C[C@@H](O)[C@H](N)C(=O)O + O
Settings | electrical conductivity [S/m]
x2 = 0.0002, x1 = 5.4e-07 | 0.000209 ± 2e-06
x2 = 0.0002, x1 = 9e-07 | 0.000279 ± 3e-06
x2 = 0.0002, x1 = 1.62e-06 | 0.000384 ± 4e-06
x2 = 0.0002, x1 = 2.35e-06 | 0.000481 ± 5e-06
x2 = 0.0002, x1 = 2.89e-06 | 0.000615 ± 6e-06
x2 = 0.0002, x1 = 3.79e-06 | 0.000744 ± 7e-06
x2 = 0.0002, x1 = 4.51e-06 | 0.000835 ± 8e-06
x2 = 0.0002, x1 = 5.59e-06 | 0.000986 ± 1e-05
x2 = 0.0002, x1 = 6.67e-06 | 0.001137 ± 1.1e-05
x2 = 0.0002, x1 = 7.94e-06 | 0.00127 ± 1.3e-05
x2 = 0.0002, x1 = 9.02e-06 | 0.001403 ± 1.4e-05
x2 = 0.0002, x1 = 1.01e-05 | 0.00155 ± 1.6e-05
x2 = 0.0002, x1 = 1.118e-05 | 0.00168 ± 1.7e-05
x2 = 0.0002, x1 = 1.335e-05 | 0.00196 ± 2e-05
x2 = 0.0002, x1 = 1.551e-05 | 0.00219 ± 2.2e-05
x2 = 0.0002, x1 = 1.75e-05 | 0.00237 ± 2.4e-05
x2 = 0.0002, x1 = 1.966e-05 | 0.00251 ± 2.5e-05
x2 = 0.0002, x1 = 2.183e-05 | 0.00264 ± 2.6e-05
x2 = 0.0002, x1 = 2.381e-05 | 0.00275 ± 2.8e-05
x2 = 0.0002, x1 = 2.58e-05 | 0.00286 ± 2.9e-05
x2 = 0.0002, x1 = 2.995e-05 | 0.00304 ± 3e-05
x2 = 0.0002, x1 = 3.391e-05 | 0.00321 ± 3.2e-05
x2 = 0.0002, x1 = 3.77e-05 | 0.00335 ± 3.4e-05
x2 = 0.0002, x1 = 4.149e-05 | 0.0035 ± 3.5e-05
x2 = 0.0002, x1 = 4.528e-05 | 0.00364 ± 3.6e-05
x2 = 0.0002, x1 = 4.889e-05 | 0.00376 ± 3.8e-05
x2 = 0.0002, x1 = 5.069e-05 | 0.00382 ± 3.8e-05
x2 = 0.0002, x1 = 5.953e-05 | 0.0041 ± 4.1e-05
x2 = 0.0002, x1 = 6.801e-05 | 0.00437 ± 4.4e-05
x2 = 0.0002, x1 = 7.612e-05 | 0.00458 ± 4.6e-05
x2 = 0.0002, x1 = 8.388e-05 | 0.00481 ± 4.8e-05
x2 = 0.0002, x1 = 9.146e-05 | 0.00499 ± 5e-05
x2 = 0.0002, x1 = 9.849e-05 | 0.00517 ± 5.2e-05
x2 = 0.0002, x1 = 0.0001055 | 0.00533 ± 5.3e-05
x2 = 0.0002, x1 = 0.000112 | 0.0055 ± 5.5e-05
x2 = 0.0002, x1 = 0.0001185 | 0.00565 ± 5.7e-05
x2 = 0.0009181, x1 = 2.391e-05 | 0.00276 ± 2.8e-05
x2 = 0.0009181, x1 = 2.608e-05 | 0.00285 ± 2.9e-05
x2 = 0.0009181, x1 = 3.007e-05 | 0.00304 ± 3e-05
x2 = 0.0009181, x1 = 3.405e-05 | 0.0032 ± 3.2e-05
x2 = 0.0009181, x1 = 3.804e-05 | 0.00337 ± 3.4e-05
x2 = 0.0009181, x1 = 4.184e-05 | 0.00351 ± 3.5e-05
x2 = 0.0009181, x1 = 4.564e-05 | 0.00365 ± 3.7e-05
x2 = 0.0009181, x1 = 4.926e-05 | 0.00379 ± 3.8e-05
x2 = 0.0009181, x1 = 5.108e-05 | 0.00385 ± 3.9e-05
x2 = 0.0009181, x1 = 5.995e-05 | 0.00413 ± 4.1e-05
x2 = 0.0009181, x1 = 6.846e-05 | 0.00439 ± 4.4e-05
x2 = 0.0009181, x1 = 7.661e-05 | 0.00463 ± 4.6e-05
x2 = 0.0009181, x1 = 8.44e-05 | 0.00485 ± 4.9e-05
x2 = 0.0009181, x1 = 9.2e-05 | 0.00505 ± 5.1e-05
x2 = 0.0009181, x1 = 9.907e-05 | 0.00523 ± 5.2e-05
x2 = 0.0009181, x1 = 0.0001061 | 0.0054 ± 5.4e-05
x2 = 0.0009181, x1 = 0.0001128 | 0.00556 ± 5.6e-05
x2 = 0.0009181, x1 = 0.0001192 | 0.00571 ± 5.7e-05
x2 = 0.0009182, x1 = 5.4e-07 | 0.000316 ± 3e-06
x2 = 0.0009182, x1 = 9.1e-07 | 0.000383 ± 4e-06
x2 = 0.0009182, x1 = 1.63e-06 | 0.00045 ± 5e-06
x2 = 0.0009182, x1 = 2.35e-06 | 0.000543 ± 5e-06
x2 = 0.0009182, x1 = 2.9e-06 | 0.000651 ± 7e-06
x2 = 0.0009182, x1 = 3.8e-06 | 0.000745 ± 7e-06
x2 = 0.0009182, x1 = 4.53e-06 | 0.000847 ± 8e-06
x2 = 0.0009182, x1 = 5.61e-06 | 0.00102 ± 1e-05
x2 = 0.0009182, x1 = 6.88e-06 | 0.001307 ± 1.3e-05
x2 = 0.0009182, x1 = 7.97e-06 | 0.001432 ± 1.4e-05
x2 = 0.0009182, x1 = 9.06e-06 | 0.00156 ± 1.6e-05
x2 = 0.0009182, x1 = 1.014e-05 | 0.00169 ± 1.7e-05
x2 = 0.0009182, x1 = 1.123e-05 | 0.001816 ± 1.8e-05
x2 = 0.0009182, x1 = 1.34e-05 | 0.00202 ± 2e-05
x2 = 0.0009182, x1 = 1.558e-05 | 0.00226 ± 2.3e-05
x2 = 0.0009182, x1 = 1.775e-05 | 0.0024 ± 2.4e-05
x2 = 0.0009182, x1 = 1.974e-05 | 0.00254 ± 2.5e-05
x2 = 0.0009182, x1 = 2.192e-05 | 0.00266 ± 2.7e-05
